Article PMC8929364, “Metopimazine is primarily metabolized by a liver amidase in humans” (Pharmacology Research & Perspectives, 2021)
Several values for one entry are separate records, joined by “and”; a condition that tells them apart may be missing. Identical values can stand only once. Like-named read-outs stand apart in the source and are kept apart here.

Tests used:
[1] = Rat PK study, single oral dose of metopimazine; format: in vivo, Sprague Dawley rats; settings: Sprague Dawley, plasma, 45 mg/kg metopimazine single oral dose, mean (SD)
Procedure: The pharmacokinetics of metopimazine (parent) and metopimazine acid (metabolite) were evaluated in male and female Sprague Dawley rats following a single oral dose of 45 mg/kg metopimazine (free base). Three animals per sex in each dose group were sampled at each timepoint after administration (0.25, 0.5, 1, 2, 4, 8, 12, and 24 h). The rats (rattus norvegicus) were obtained from Envigo RMS, Inc. and were 2 months old. Animals were weighed prior to each dose administration for the purpose of dose calculation. Whole venous blood samples of approximately 0.5 ml were collected from a peripheral vein of animals for determination of exposure to metopimazine and metopimazine acid. Three animals per sex were sampled at each timepoint. Samples were collected in tubes containing K2EDTA with protease inhibitor cocktail (Sigma, # P8340, at ratio 1:100) and placed on ice until processed for plasma by centrifugation under refrigeration for at least 10 min at 1912 x g. After centrifugation, supernatant was removed and stored frozen in a −70°C freezer until analyzed by LC–MS/MS.
(§1) An MRM LC–MS/MS method was developed for MPZ and metopimazine acid (MPZA) in rat, dog, and human plasma. The method was run in reverse phase in positive ion mode. […] D6‐isotopically labeled internal standards were used for each analyte. The following m/z transitions were monitored: metopimazine 446.3 → 141.1 and metopimazine acid 447.2 → 142.1.
(§2) Noncompartmental Pharmacokinetics analysis was performed in Phoenix 64 Winnonlin version 8.1.

[2] = Clinical study NG100-101: plasma pharmacokinetics of metopimazine and metabolites after a single oral 60 mg dose; format: in vivo, healthy adult subjects (human); settings: for % Drug‐related material MPZ / % Drug‐related material MPZA: based on AUClast; for % Drug‐related material MPZ / percent of total circulating drug‐related material / % Drug‐related material MPZA: single 60 mg dose; for Tmax / AUC(0-t) / Cmax: both sexes, human, po, 60 mg; for percent of total circulating drug‐related material: rough estimate based on AUClast
Procedure: The clinical study was conducted at Biotrial Rennes, in accordance with the Declaration of Helsinki. The study (NG100‐101) was a double‐blind, placebo‐ controlled, ascending single‐ and multiple‐dose study of the safety, tolerability, and pharmacokinetics of metopimazine administered orally to healthy adult subjects. The study protocol, informed consent form, and appropriate related documents were approved by the institutional review board, and all subjects provided written informed consent prior to participation in the study. […] In the morning, after at least 10 h of fasting overnight, eight healthy adult subjects (male or female aged 18 to 45), were orally administered metopimazine (or a matching placebo). […] Blood samples were collected at the following time points: predose and 0.25, 0.5, 0.75, 1, 1.25, 1.5, 2, 3, 4, 6, 8, 12, 18, and 24 h postdose; plasma samples were obtained by centrifugation of the blood samples. A comprehensive safety and pharmacokinetic analysis was performed for each cohort for the SAD and MAD parts of the study and will be presented elsewhere. A fit‐for‐purpose discovery method was used to analyze 4 subjects from the highest single dosed cohort for the presence of metabolites. Plasma concentrations of metopimazine, metopimazine acid and metopimazine sulfoxide were quantified using LC–MS/MS methods. Venous blood samples (6 ml) for the determination of plasma concentrations of MPZ and metabolites (MPZA and MPZS) were drawn by direct venipuncture or via an intravenous catheter into K2EDTA Vacutainer® tubes. It was important to avoid hemolysis during blood collection. After collection, the blood samples were centrifuged within 60 min, at 3000 rotations per minute for 10 min at 5°C. The resulting plasma was separated into 2 equal aliquots of 1000 µl (aliquots A & B) and transferred to polypropylene tubes, which were labeled, frozen within 120 min of blood collection and stored at –70°C until required for bioanalysis. Immediately prior to bioanalysis, samples were thawed and a 200 µl aliquots were removed and analytes extracted using acetonitrile protein precipitation. The extracted samples were analyzed twice, once for quantification of MPZ and MPZA and again for MPZS quantification as described below. An MRM LC–MS/MS method was developed for MPZ and metopimazine acid (MPZA) in rat, dog, and human plasma. The method was run in reverse phase in positive ion mode. […] D6‐isotopically labeled internal standards were used for each analyte. The following m/z transitions were monitored: metopimazine 446.3 → 141.1 and metopimazine acid 447.2 → 142.1. […] An MRM LC–MS/MS method was developed to look for metopimazine sulfoxide (MPZS) in human plasma. The method was run in reverse phase in positive ion mode. The system was identical to what was described above except that a slightly longer column was used, a Supelco Discovery HS F5 100 × 4.0 mm (3 µm) column (Sigma‐Aldrich). A D6‐isotopically labeled internal standards was used for MPS and the m/z transition monitored was 462.3 → 98.1. A calibration curve was generated for the quantification of MPZS in human plasma. Noncompartmental Pharmacokinetics analysis was performed in Phoenix 64 Winnonlin version 8.1.

[3] = cited from earlier work
[4] = Dog PK study, single oral dose of metopimazine; format: in vivo, beagle dogs; settings: beagle, plasma; Dog (male), 10 mg/kg metopimazine single oral dose, mean (SD)
Procedure: The pharmacokinetics of metopimazine (parent) and metopimazine acid (metabolite) were evaluated in three male, beagle dogs following a single oral dose of 10 mg/kg metopimazine (free base). The dogs were obtained from Marshall BioResources. Animals were weighed prior to each dose administration for the purpose of dose calculation. Metopimazine was administered in size 13 gelatin capsules. Whole venous blood samples of approximately 1.0 ml were collected from a peripheral vein of all animals for determination of metopimazine and metopimazine acid. Samples were collected at the following timepoints: 0.25, 0.5, 1, 2, 4, 8, 12, and 24 h after test article administration. All animals were sampled at each timepoint. Samples were collected in tubes containing K2EDTA and placed on ice until processed for plasma by centrifugation under refrigeration for at least 10 min at 1912 x g. After centrifugation, the supernatant was removed and stored frozen in a −70°C freezer until analyzed by LC–MS/MS.
as §1, §2

[5] = Incubation of MPZ with pooled human liver microsomes (disappearance, metabolite formation); format: in vitro ADME; settings: for Peak area at time 0 / Peak area at time 90 min: metopimazine incubation in human liver microsomes, full scan LC–MS
Procedure: To conduct the metabolic incubation in liver microsomes in the linear range, protein concentration and the reaction time were optimized.
PAR was also used for all positive control compounds.
The degree of disappearance of each analyte was evaluated by comparing the PAR of analyte to IS or concentration in different sampling time points to the PAR of time zero, (t = 0, 100%). The percent of parent remaining values were calculated according to the following equation: %parentremaining=(meanconcentrationorPARateachsamplingtimepoint/meanconcentrationorPARoftimezero)×100

human D2 receptor = system: human D2 receptor; set-up: method as in earlier work; settings: cited from earlier work
[6] = plasma, individual subjects, single oral 60 mg MPZ dose

For CS(=O)(=O)c1ccc2c(c1)N(CCCN1CCC(C(N)=O)CC1)c1ccccc1S2 [MPZ, metopimazine], which AUC(0-inf) ([1]; Rat (female)) is on record?
The AUC(0-inf) was 13900 ng·h/mL.

And the Cmax ([1]; Rat (female))?
The Cmax was 1730 ng/mL.

And the Tmax ([1]; Rat (female))?
Its Tmax is 4 h.

And the AUC(0-inf) ([1]; Rat (male))?
The AUC(0-inf) was 8170 ng·h/mL.

And the Cmax ([1]; Rat (male))?
Its Cmax is 1080 ng/mL.

What about the Tmax ([1]; Rat (male)) of the same molecule?
The Tmax was 4 h.

And the “% Drug‐related material MPZ” value ([2]; individual subjects)?
The value was 6.5% and 9.9% and 6.2% and 6.8%.

What about the “% Drug‐related material MPZ” value ([2]; mean of 4 subjects) of the same molecule?
The value was 7.4%.

What about the Tmax ([2]; plasma, plasma, individual subjects, single oral 60 mg MPZ dose, read-out: MPZ T max) of the same molecule?
Its Tmax is 3 h.

What about the AUC(0-t) ([2]; plasma, plasma, mean of 4 subjects, single oral 60 mg MPZ dose, read-out: MPZ AUClast) of the same molecule?
Its AUC(0-t) is 172 ng·h/mL.

And the Cmax ([2]; plasma, plasma, mean of 4 subjects, single oral 60 mg MPZ dose, read-out: MPZ C max)?
Its Cmax is 93.9 ng/mL.

What about the Tmax ([2]; plasma, plasma, mean of 4 subjects, single oral 60 mg MPZ dose, read-out: MPZ T max) of the same molecule?
Its Tmax is 1.4 h.

What about the “MPZ AUClast” value [2, 6] of the same molecule?
Its value is 111.9 ng‐h/ml and 278.2 ng‐h/ml and 129.4 ng‐h/ml and 167.5 ng‐h/ml.

And the “MPZ C max” value [2, 6]?
Its value is 38.9 ng/mL and 203 ng/mL and 75.6 ng/mL and 58.2 ng/mL.

What about the “MPZ T max” value [2, 6] of the same molecule?
Its value is 0.75 h and 1 h.

What about the “percent of total circulating drug‐related material” value [2] of the same molecule?
The value was “less than 10%”.

What about the “blood–brain barrier penetration” value [3] of the same molecule?
Its value is “does not penetrate the blood–brain barrier”.

And the absolute bioavailability ([3]; humans, 10 mg dose of MPZ)?
Its absolute bioavailability is “under 20%”.

What about the AUC(0-inf) [4] of the same molecule?
Its AUC(0-inf) is 2600 ng·h/mL.

What about the Cmax [4] of the same molecule?
Its Cmax is 416 ng/mL.

And the Tmax [4]?
Its Tmax is 0.83 h.

And the “percent of parent remaining” value ([5]; 1 µM MPZ, HLM 0.5 mg/ml protein, NADPH, 60 min)?
The value was 37.2%.

What about the “Peak area at time 0” value [5] of the same molecule?
The value was 2373.

And the “Peak area at time 90 min” value [5]?
Its value is 715.

Which AUC(0-inf) ([1]; Rat (female)) does the source give for CS(=O)(=O)c1ccc2c(c1)N(CCCN1CCC(C(=O)O)CC1)c1ccccc1S2 [MPZA, metopimazine acid] here?
The AUC(0-inf) was 884 ng·h/mL.

And the Cmax ([1]; Rat (female))?
Its Cmax is 110 ng/mL.

What about the Tmax ([1]; Rat (female)) of the same molecule?
The Tmax was 3 h.

And the AUC(0-inf) ([1]; Rat (male))?
The AUC(0-inf) was 755 ng·h/mL.

What about the Cmax ([1]; Rat (male)) of the same molecule?
Its Cmax is 89 ng/mL.

And the Tmax ([1]; Rat (male))?
The Tmax was 4 h.

And the “% Drug‐related material MPZA” value ([2]; individual subjects)?
The value was 93.0% and 89.2% and 93.3% and 92.4%.

What about the “% Drug‐related material MPZA” value ([2]; mean of 4 subjects) of the same molecule?
The value was 92.0%.

And the Tmax ([2]; plasma, 4 subjects, single oral 60 mg MPZ dose, read-out: Tmax, range over subjects)?
Its Tmax is 1.25 to 3 h.

And the AUC(0-t) ([2]; plasma, plasma, individual subjects, single oral 60 mg MPZ dose, read-out: MPZA AUClast)?
The AUC(0-t) was 1590 ng·h/mL.

And the AUC(0-t) ([2]; plasma, plasma, mean of 4 subjects, single oral 60 mg MPZ dose, read-out: MPZA AUClast)?
Its AUC(0-t) is 2080 ng·h/mL.

What about the Cmax ([2]; plasma, plasma, mean of 4 subjects, single oral 60 mg MPZ dose, read-out: MPZA C max) of the same molecule?
The Cmax was 397 ng/mL.

What about the Tmax ([2]; plasma, plasma, mean of 4 subjects, single oral 60 mg MPZ dose, read-out: MPZA T max) of the same molecule?
The Tmax was 1.8 h.

What about the “MPZA AUClast” value [2, 6] of the same molecule?
The value was 2506.1 ng‐h/ml and 1941.9 ng‐h/ml and 2265.8 ng‐h/ml.

What about the “MPZA C max” value [2, 6] of the same molecule?
Its value is 241 ng/mL and 601 ng/mL and 357 ng/mL and 390 ng/mL.

And the “MPZA T max” value [2, 6]?
Its value is 3 h and 1.25 h (2×) and 1.5 h.

What about the “percent of total circulating drug‐related material” value [2] of the same molecule?
Its value is “approximately 90%”.

And the “share of circulating drug‐related material in plasma” value ([3]; clinical doses of 20 and 50 mg MPZ, single dose, preprandially or postprandially)?
The value was at least 80%.

And the “share of circulating drug‐related material based on AUC exposure” value ([3]; humans)?
Its value is “over 90%”.

What about the AUC(0-inf) [4] of the same molecule?
Its AUC(0-inf) is 728 ng·h/mL.

And the Cmax [4]?
The Cmax was 103 ng/mL.

What about the Tmax [4] of the same molecule?
Its Tmax is 2 h.

And the “fold less potent at the human D2 receptor compared to the parent” value (human D2 receptor)?
The value was “about 200 fold”.

And the “Peak area at time 0” value [5]?
Its value is 0.

And the “Peak area at time 90 min” value [5]?
The value was 208.
